Values of other authors, collected in US20070059365A1, “Novel formulation of ropinirole” (priority 2003, published 2007).

Conditions: in vivo

In the case of `CCCN(CCC)CCc1cccc2c1CC(=O)N2.Cl` [ropinirole, 4-(2-di-n-propylaminoethyl)-2(3H)-indolone hydrochloride], the half-life of ropinirole is listed as 5 to 6 h.
